# Results reported in paper PMC4893628, “Chalcone-based Selective Inhibitors of a C4 Plant Key Enzyme as Novel Potential Herbicides” (Scientific Reports, 2016).
# Read-outs that look alike come from different tables or passages of the source.
# Tests used:
# [1] = test system: Bacillus subtilis 168; assay: Bacterial growth in microscale cultivation, B. subtilis; format: cell-based; details: for Lag Phase: relative to control
# Description: (§1) The following bacteria were cultivated in the presence of trans-chalcone derived inhibitors: Corynebacterium glutamicum ATCC13032[43], Escherichia coli K-12 MG1655[44], Pseudomonas putida KT2440[45], and Bacillus subtilis 168[46]. The growth of these bacteria was monitored in flower-well plates shaken at 1200 rpm as backscatter at 620 nm (gain 20) using a BioLector® microscale cultivation system (m2p labs, Baesweiler, Germany). For further experimental details please refer to the Supplementary Information.
# (§2) medium or the appropriate minimal medium and shaken at 140 rpm overnight. For inoculation of
# (§3) the main culture, cells equivalent to an optical density at 600 nm of 0.5 (C. glutamicum, E. coli,
# (§4) and P. putida) or 0.25 (B. subtilis) in 800 µL medium were washed and resuspended in fresh
# (§5) media. Inhibitor substances were dissolved in DMSO and added to the media to a final
# (§6) Since the least polar trans-chalcone and 2’-hydroxychalcone precipitated in the growth media at
# (§7) the highest concentrations, the maximal concentration of these compounds was reduced to 400
# (§8) µM and 100 µM, respectively. The final backscatter at 620 nm, the growth rate (h-1), and the
# (§9) duration of the lag phase of all cultures were determined in a BioLector microscale cultivation
# (§10) system in comparison to negative controls supplemented with the solvent DMSO. A longer lag
# [2] = test system: Amaranthus retroflexus; assay: In planta growth experiment, A. retroflexus; format: in vivo; details: shoots sprayed, 3 mM
# Description: Seeds of Amaranthus retroflexus L. (Herbiseed, Twyford, UK) and Brassica napus L. cv. Mozart (Norddeutsche Pflanzenzucht Hans-Georg Lembke KG, Holtsee, Germany) were sown in vermiculite for germination. When cotyledons were fully expanded, seedlings were transplanted into plastic pots with a volume of 0.230 L filled with a substrate containing 50% bottom ash (0–4 mm), 30% peat and 20% pumice gravel (0–4 mm). Plants were watered every other day with 0.03% Hakaphos® Grün solution (Compo Expert GmbH, Münster, Germany) by sub-irrigation. Plants were grown in a climate chamber at 22 °C/20 °C day/night temperature and a day/night length of 16 h/8 h. Relative humidity was adjusted to 70% and light intensity was 320 μmol m^−2 s^−1 PAR (Photosynthetically Active Radiation) at plant level.
# When seedlings reached the two-leaf growth stage, plant shoots were sprayed from the top with treatment solutions using spray bottles with a spraying angle of 35° (10 ml, neoLab Migge Laborbedarf-Vertriebs GmbH, Heidelberg, Germany). Treatment solutions were applied from a height of 8.5 cm above the pots. Each pot was sprayed once with a solution volume of 0.135 ml. Treatment solutions contained 2.4% (v/v) DMSO (dimethylsulfoxide, Duchefa Biochemie, Haarlem, the Netherlands), 0.1% (v/v) Tween® and the respective compound at a concentration of 3 mM. The control treatment contained 2.4% (v/v) DMSO, and 0.1% (v/v) Tween20. Further details are given in the Supplementary Information. […]
# Experimental design and assessments of in planta experiments
# We tested eleven compounds in a first experiment. In a follow-up experiment we tested selected […]
# chalcone. Each treatment was repeated 12 times, except for oilseed rape in the second experiment (n=10). Pots were arranged in the growth chamber according to a fully randomized design. Initial growth of the second leaf of A. retroflexus plants was monitored by aquiring images of each plant from above from day zero to day two after treatment. Images were taken […]
# from a fixed distance at 90° view angle using the camera Canon EOS 70D equipped with a Canon EF 14 mm/2.8 L II USM lens. Leaf area of single leaves was measured using the ImageJ software31, by drawing the leaf contours using a drawing tablet (Cintiq 22HD, Wacom Europe GmbH, Krefeld, Germany). Conversion of pixel to cm was achieved by using a target of known size inside the image. Six days after the treatment, half of the plants were harvested. Leaf area was assessed using a leaf area meter (LI3100C Area Meter, LI-Cor, Lincoln, Nebraska, USA) and samples were oven-dried at 65°C for seven days to obtain dry weight . Thirteen days after the treatment, this procedure was repeated with the second half of plants.
# Chlorophyll fluorescence measurements […]
# 6 mm leaf discs were cut out of the second leaf and immediately placed into 96-well-plates filled with 300 µL 0.125 % Hoagland’s solution with 1 mM MES-KOH (MES-monohydrate, Merck, Darmstadt, Germany) buffered to a pH of 6.5. The treatment solution contained 1.6 % (v/v) DMSO, 0.1 % (v/v) Tween® 20 and 2',3',4',3,4-Pentahydroxychalcone at a concentration of 2 mM. The control treatment contained 1.6 % (v/v) DMSO, 0.1 % (v/v) Tween® 20. Each leaf disc was treated with 1.5 µL solution placed on top of the leaf discs. Plates were sealed with Parafilm and placed into a climate cabinet with 12h/12h day/night-length and a temperature of 22°C at a light intensity of 130 µmol m-2 s-1. 96 hours after treatment, chlorophyll fluorescence measurements were performed on leaf discs using an Imaging PAM M-Series fluorescence camera (Heinz Walz GmbH, Effeltrich, Germany). Leaf discs were dark adapted for 30 minutes, minimum and maximum chlorophyll fluorescence were obtained and leaf discs were illuminated for 30 minutes
# [3] = test system: Pseudomonas putida KT2440; assay: Bacterial growth in microscale cultivation, P. putida; format: cell-based; details: for activity at 5 µM / activity at 50 µM / activity at 500 µM: Pseudomonas putida; for Lag Phase: relative to control
# Description: as §1, §2, §3, §4, §5, §6, §7, §8, §9, §10
smiles,measurement,setting,value
"O=C(/C=C/c1ccccc1)c1ccccc1O [Compound 2, 2′-Hydroxychalcone]",activity at 5 µM,"[1]; Bacillus subtilis, 168, read-out: Final Backscatter, complex medium, 5 µM, relative to control",96.4%
same,activity at 50 µM,"[1]; Bacillus subtilis, 168, read-out: Final Backscatter, complex medium, 50 µM, relative to control",97.6%
same,activity at 100 µM,"[1]; Bacillus subtilis, 168, read-out: Final Backscatter, complex medium, 100 µM, relative to control",112%
same,activity at 500 µM,"[1]; Bacillus subtilis, 168, read-out: Final Backscatter, complex medium, 500 µM, relative to control",75.6%
same,activity at 5 µM,"[1]; Bacillus subtilis, 168, read-out: Final Backscatter, minimal medium, 5 µM, relative to control",97.9%
same,activity at 50 µM,"[1]; Bacillus subtilis, 168, read-out: Final Backscatter, minimal medium, 50 µM, relative to control",95.5%
same,activity at 100 µM,"[1]; Bacillus subtilis, 168, read-out: Final Backscatter, minimal medium, 100 µM, relative to control",101%
same,activity at 500 µM,"[1]; Bacillus subtilis, 168, read-out: Final Backscatter, minimal medium, 500 µM, relative to control",70%
same,activity at 5 µM,"[1]; Bacillus subtilis, 168, read-out: Growth rate, complex medium, 5 µM, relative to control",91.2%
same,activity at 50 µM,"[1]; Bacillus subtilis, 168, read-out: Growth rate, complex medium, 50 µM, relative to control",97.7%
same,activity at 100 µM,"[1]; Bacillus subtilis, 168, read-out: Growth rate, complex medium, 100 µM, relative to control",118%
same,activity at 5 µM,"[1]; Bacillus subtilis, 168, read-out: Growth rate, minimal medium, 5 µM, relative to control",96.8%
same,activity at 50 µM,"[1]; Bacillus subtilis, 168, read-out: Growth rate, minimal medium, 50 µM, relative to control",113%
same,activity at 100 µM,"[1]; Bacillus subtilis, 168, read-out: Growth rate, minimal medium, 100 µM, relative to control",134%
same,activity at 500 µM,"[1]; Bacillus subtilis, 168, read-out: Growth rate, minimal medium, 500 µM, relative to control",98.7%
same,Lag Phase,"[1]; complex medium, 5 µM","89,8%"
same,Lag Phase,"[1]; complex medium, 50 µM","100,0%"
same,Lag Phase,"[1]; complex medium, 100 µM","95,4%"
same,Lag Phase,"[1]; minimal medium, 5 µM","99,5%"
same,Lag Phase,"[1]; minimal medium, 50 µM","108,5%"
same,Lag Phase,"[1]; minimal medium, 100 µM","107,8%"
same,Lag Phase,"[1]; minimal medium, 500 µM","143,1%"
same,Influence on plants,[2],No
same,activity at 5 µM,"[3]; KT2440, read-out: Final Backscatter, complex medium, 5 µM, relative to control",98%
same,activity at 50 µM,"[3]; KT2440, read-out: Final Backscatter, complex medium, 50 µM, relative to control",101%
same,activity at 500 µM,"[3]; KT2440, read-out: Final Backscatter, complex medium, 500 µM, relative to control",102%
same,activity at 5 µM,"[3]; KT2440, read-out: Final Backscatter, minimal medium, 5 µM, relative to control",96.6%
same,activity at 50 µM,"[3]; KT2440, read-out: Final Backscatter, minimal medium, 50 µM, relative to control",98%
same,activity at 500 µM,"[3]; KT2440, read-out: Final Backscatter, minimal medium, 500 µM, relative to control",111%
same,activity at 5 µM,"[3]; KT2440, read-out: Growth rate, complex medium, 5 µM, relative to control",103%
same,activity at 50 µM,"[3]; KT2440, read-out: Growth rate, complex medium, 50 µM, relative to control",102%
same,activity at 500 µM,"[3]; KT2440, read-out: Growth rate, complex medium, 500 µM, relative to control",189%
same,activity at 5 µM,"[3]; KT2440, read-out: Growth rate, minimal medium, 5 µM, relative to control",96%
same,activity at 50 µM,"[3]; KT2440, read-out: Growth rate, minimal medium, 50 µM, relative to control",99.3%
same,activity at 500 µM,"[3]; KT2440, read-out: Growth rate, minimal medium, 500 µM, relative to control",153%
same,Lag Phase,"[3]; complex medium, 5 µM","101,0%"
same,Lag Phase,"[3]; complex medium, 50 µM","102,6%"
same,Lag Phase,"[3]; complex medium, 500 µM","110,8%"
same,Lag Phase,"[3]; minimal medium, 5 µM","100,0%"
same,Lag Phase,"[3]; minimal medium, 50 µM","100,6%"
same,Lag Phase,"[3]; minimal medium, 500 µM","100,0%"
